Results reported in patent US20150209315A1 (Cumberland Pharmaceuticals, priority 2009, published 2015).

Test system: post-operative adult patients
Assay: Example 1: patient self-assessment of pain, VAS at rest
Format: in vivo, human
Method: Pain was measured by the patient's self-assessment using a Visual Analog Scale (VAS) from 0-10 with 0 being no pain and 10 being intense pain. This was measured both at rest and with movement. […] […] To account for the missing pain assessments, two missing value approaches as described in the statistical analysis plan were used to impute values. To determine the difference in overall pain at differing time-points, the area under the VAS pain curve during the first 24 hours, between 6 and 24 hours and between 12 and 24 hours were analyzed.

Compound: CC(C)Cc1ccc(C(C)C(=O)O)cc1 (stereo not drawn) [Ibuprofen, 2-(4-isobutylphenyl) propionic acid]
- VAS Score measured at Rest (median) (400 mg, EEP, 1-Hour): 7.0
- VAS Score measured at Rest, % Reduction vs Placebo (400 mg, EEP, 1-Hour): 0.0%
- VAS Score measured at Rest (median) (400 mg, EEP, 2-Hour): 6.1
- VAS Score measured at Rest, % Reduction vs Placebo (400 mg, EEP, 2-Hour): −3.4%
- VAS Score measured at Rest (median) (400 mg, EEP, 3-Hour): 5.0
- VAS Score measured at Rest, % Reduction vs Placebo (400 mg, EEP, 3-Hour): 0.0%
- VAS Score measured at Rest (median) (400 mg, EEP, 6-Hour): 4.0
- VAS Score measured at Rest, % Reduction vs Placebo (400 mg, EEP, 6-Hour): 0.0%
- VAS Score measured at Rest (median) (400 mg, EEP, 9-Hour): 3.0
- VAS Score measured at Rest (median) (400 mg, EEP, 12-Hour): 3.0
- VAS Score measured at Rest, % Reduction vs Placebo (400 mg, EEP, 12-Hour): 0.0%
- VAS Score measured at Rest (median) (400 mg, EEP, 15-Hour): 2.0
- VAS Score measured at Rest, % Reduction vs Placebo (400 mg, EEP, 15-Hour): 33.3%
- VAS Score measured at Rest (median) (400 mg, EEP, 18-Hour): 2.9
- VAS Score measured at Rest, % Reduction vs Placebo (400 mg, EEP, 18-Hour): 3.3%
- VAS Score measured at Rest (median) (400 mg, EEP, 21-Hour): 2.9
- VAS Score measured at Rest, % Reduction vs Placebo (400 mg, EEP, 21-Hour): 3.3%
- VAS Score measured at Rest (median) (400 mg, EEP, 24-Hour): 3.0
- VAS Score measured at Rest, % Reduction vs Placebo (400 mg, EEP, 24-Hour): 0.0%
- VAS Score measured at Rest (median) (400 mg, EEP, 27-Hour): 3.0
- VAS Score measured at Rest, % Reduction vs Placebo (400 mg, EEP, 27-Hour): 3.2%
- VAS Score measured at Rest (median) (400 mg, EEP, 30-Hour): 2.5
- VAS Score measured at Rest, % Reduction vs Placebo (400 mg, EEP, 30-Hour): 10.7%
- VAS Score measured at Rest (median) (400 mg, EEP, 33-Hour): 2.7
- VAS Score measured at Rest, % Reduction vs Placebo (400 mg, EEP, 33-Hour): 15.6%
- VAS Score measured at Rest (median) (400 mg, EEP, 36-Hour): 2.4
- VAS Score measured at Rest, % Reduction vs Placebo (400 mg, EEP, 36-Hour): 7.7%
- VAS Score measured at Rest (median) (400 mg, EEP, 39-Hour): 2.1
- VAS Score measured at Rest, % Reduction vs Placebo (400 mg, EEP, 39-Hour): −16.7%
- VAS Score measured at Rest (median) (400 mg, EEP, 42-Hour): 2.1
- VAS Score measured at Rest, % Reduction vs Placebo (400 mg, EEP, 42-Hour): −5.0%
- VAS Score measured at Rest (median) (400 mg, EEP, 45-Hour): 2.4
- VAS Score measured at Rest, % Reduction vs Placebo (400 mg, EEP, 45-Hour): −14.3%
- VAS Score measured at Rest (median) (400 mg, EEP, 48-Hour): 1.6
- VAS Score measured at Rest, % Reduction vs Placebo (400 mg, EEP, 48-Hour): −6.7%
- VAS Score measured at Rest (median) (400 mg, ITT, 1-Hour): 7.0
- VAS Score measured at Rest, % Reduction vs Placebo (400 mg, ITT, 1-Hour): 0.0%
- VAS Score measured at Rest (median) (400 mg, ITT, 2-Hour): 6.3
- VAS Score measured at Rest, % Reduction vs Placebo (400 mg, ITT, 2-Hour): −3.3%
- VAS Score measured at Rest (median) (400 mg, ITT, 3-Hour): 5.1
- VAS Score measured at Rest, % Reduction vs Placebo (400 mg, ITT, 3-Hour): −2.0%
- VAS Score measured at Rest (median) (400 mg, ITT, 6-Hour): 4.3
- VAS Score measured at Rest, % Reduction vs Placebo (400 mg, ITT, 6-Hour): −7.5%
- VAS Score measured at Rest (median) (400 mg, ITT, 9-Hour): 3.5
- VAS Score measured at Rest, % Reduction vs Placebo (400 mg, ITT, 9-Hour): 12.5%
- VAS Score measured at Rest (median) (400 mg, ITT, 12-Hour): 3.1
- VAS Score measured at Rest, % Reduction vs Placebo (400 mg, ITT, 12-Hour): −3.3%
- VAS Score measured at Rest (median) (400 mg, ITT, 15-Hour): 2.6
- VAS Score measured at Rest, % Reduction vs Placebo (400 mg, ITT, 15-Hour): 21.2%
- VAS Score measured at Rest (median) (400 mg, ITT, 18-Hour): 2.9
- VAS Score measured at Rest, % Reduction vs Placebo (400 mg, ITT, 18-Hour): 3.3%
- VAS Score measured at Rest (median) (400 mg, ITT, 21-Hour): 2.8
- VAS Score measured at Rest, % Reduction vs Placebo (400 mg, ITT, 21-Hour): 20.0%
- VAS Score measured at Rest (median) (400 mg, ITT, 24-Hour): 3.0
- VAS Score measured at Rest, % Reduction vs Placebo (400 mg, ITT, 24-Hour): 0.0%
- VAS Score measured at Rest (median) (400 mg, ITT, 27-Hour): 3.1
- VAS Score measured at Rest, % Reduction vs Placebo (400 mg, ITT, 27-Hour): −3.3%
- VAS Score measured at Rest (median) (400 mg, ITT, 30-Hour): 2.4
- VAS Score measured at Rest, % Reduction vs Placebo (400 mg, ITT, 30-Hour): 11.1%
- VAS Score measured at Rest (median) (400 mg, ITT, 33-Hour): 2.7
- VAS Score measured at Rest, % Reduction vs Placebo (400 mg, ITT, 33-Hour): 15.6%
- VAS Score measured at Rest (median) (400 mg, ITT, 36-Hour): 2.3
- VAS Score measured at Rest, % Reduction vs Placebo (400 mg, ITT, 36-Hour): 11.5%
- VAS Score measured at Rest (median) (400 mg, ITT, 39-Hour): 2.1
- VAS Score measured at Rest, % Reduction vs Placebo (400 mg, ITT, 39-Hour): −16.7%
- VAS Score measured at Rest (median) (400 mg, ITT, 42-Hour): 2.1
- VAS Score measured at Rest, % Reduction vs Placebo (400 mg, ITT, 42-Hour): −5.0%
- VAS Score measured at Rest (median) (400 mg, ITT, 45-Hour): 2.4
- VAS Score measured at Rest, % Reduction vs Placebo (400 mg, ITT, 45-Hour): −20.0%
- VAS Score measured at Rest (median) (400 mg, ITT, 48-Hour): 1.6
- VAS Score measured at Rest, % Reduction vs Placebo (400 mg, ITT, 48-Hour): −6.7%
- VAS Score measured at Rest (median) (800 mg, EEP, 1-Hour): 7.0
- VAS Score measured at Rest, % Reduction vs Placebo (800 mg, EEP, 1-Hour): 0.0%
- VAS Score measured at Rest (median) (800 mg, EEP, 2-Hour): 6.0
- VAS Score measured at Rest, % Reduction vs Placebo (800 mg, EEP, 2-Hour): −1.7%
